Assay results: patent publication US12329160B2, “Activated ferrate compositions” (THE TEXAS A & M UNIVERSITY SYSTEM, priority 2018, dated 2025)

Assays:
[1] = pH 8.0; cited from earlier work
[2] = Elimination of six pharmaceuticals by Fe^VI—S2O3^2− in lake water (Lake Bryan); assay type: physicochemical; conditions: mixture 1.0 μM each, [S2O3^2−]:[Fe^VI] 0.125, Fe^VI 150.0 μM, pH 8.0, 30 seconds
Method: (§1) The contaminants are: carbamazepine (CMZ), diclofenac (DCF), enrofloxacin (ENR), propranolol (PPN), sulfadimethoxine (SMX), and trimethoprim (TMP). Experimental conditions: [Each contaminant]0 in mixture of samples=1.0 μM, [Fe^VI]0:[Total contaminants]=25:1, [S2O3^2−]0:[Fe^VI]0=0.125, [Fe^VI]0=150.0 μM, [S2O3^2−]0=18.75 μM, pH=8.00±0.05, reaction time=30 s).
(§2) The stock solutions of these contaminants (10.0 μM) were prepared in 10.0 mM Na2HPO4, and diluted using the same buffer solution before the removal experiments. […] Solutions of Fe^VI were prepared by adding K2FeO4 powders to 5.0 mM Na2HPO4/1.0 mM Na2B4O7.10H2O buffer solution. The concentrations of Fe^VI were quantitatively measured using an UV-visible spectrometer at a wavelength of 510 nm with a molar absorption coefficient of ε510 nm=1150 M^−1 cm^−1: The pH value of the contaminant solutions was adjusted to 7.50 via the addition of diluted H3PO4 before mixing with Fe^VI solution to achieve the desired reaction pH at 8.00±0.04. Methanol and phosphoric acid (85%) of high performance liquid chromatography (HPLC) grade were used in testing. 5,5-dimethyl-1-pyrroline-N-oxide (DMPO) was used as the spin trap reagent for identifying the possible reactive inorganic radicals (e.g., .OH and/or SO4.^−) in the oxidation system. All the other chemicals (e.g., hydroxylamine and permanganate) were provided from commercial sources and used without further purification. Two kinds of natural water samples were individually obtained from Brazos River (N 30°42′33″, E 96°28′5″, College Station, Texas) and Lake Bryan (N 30°33′30″, E 96°25′25″, Bryan, Texas). […] These real water samples were filtered through 0.45 μm hydrophilic PVDF membrane to remove the insoluble particles before spiking the contaminant mixtures (1.0 μM for each compound). 20.0 mM borate buffer was used to stabilize the solution pH of the real waters at 8.00±0.04. All the other solutions were prepared using the ultrapure water (resistivity >18 MΩ cm^−1).
(§3) Experiments were conducted in a series of 100 mL glass jars under constant stirring rate (400 rpm) with a magnetic stirrer. Oxidation of each contaminant or their mixtures by Fe^VI with or without S2O3^2− was initiated by mixing equal solution volumes of 10 mL, and the final reaction solutions were kept at 8.00±0.04. The concentration of Fe^VI was maintained at 100.0 μM, and the ratios of [S2O3^2−]:[Fe^VI] in the system were varied from 0 to 5.0 for aqueous removal of TMP (5.0 μM). […] After 30 seconds of oxidation, 20.0 μL NH2OH solution (1 M) was added to quench the reactions. Samples were transferred into high performance liquid chromatography (HPLC) vials, and were subsequently analyzed using the HPLC method. Similar experiments using TMP as a target contaminant were also performed by replacing Fe^VI with Mn^VII or chlorine under the same conditions. All experiments were carried out at room temperature, and were at least in triplicates.
For the chromatographic separation of six contaminant mixtures (CMZ, DCF, ENR, PPN, SMX, and TMP), a solvent gradient method was used with flow rate of 0.8 mL/min. This method started with 35% B (0-7.5 min), followed by 35% B to 55% B (7.5-10.5 min), 55% B to 70% B (10.5-15.5 min), 70% B to 90% B (15.5-18.5 min), 90% B (18.5-25.0 min), 90% B to 35% B (25.0-25.5 min) and post-equilibration at 35% B (25.5-33.0 min).

[3] = Oxidation of individual organic contaminants by Fe^VI with or without S2O3^2− in buffered ultrapure water, HPLC; assay type: physicochemical; conditions: for partial oxidation by Fe^VI without S2O3^2−: ratio 25:1 [Fe^VI]:[contaminants], Fe^VI 100.0 μM, pH 8.00, 30 seconds
Method: To test liquid ferrate solutions using second approach, batch experiments were conducted in a series of 100 mL glass jars under constant stirring rate (400 rpm) with a magnetic stirrer. Oxidation of each micropollutant or their mixtures by Fe^VI with or without S2O3^2− was initiated by mixing equal solution volumes of 10 mL, and the final reaction solutions were kept at 8.00±0.04.
as §2
as §3, with “conditions.” for “conditions. All experiments were carried out at room temperature, and were at least in triplicates.”

[4] = Elimination of six pharmaceuticals by Fe^VI—S2O3^2− in river water (Brazos River); assay type: physicochemical; conditions: mixture 1.0 μM each, [S2O3^2−]:[Fe^VI] 0.125, Fe^VI 150.0 μM, pH 8.0, 30 seconds
Method: as §1
The stock solutions of these contaminants (10.0 μM) were prepared in 10.0 mM Na2HPO4, and diluted using the same buffer solution before the removal experiments. Potassium ferrate (K2FeO4, purity >90%) was prepared using a wet chemical synthesis method. Solutions of Fe^VI were prepared by adding K2FeO4 powders to 5.0 mM Na2HPO4/1.0 mM Na2B4O7.10H2O buffer solution. The concentrations of Fe^VI were quantitatively measured using an UV-visible spectrometer at a wavelength of 510 nm with a molar absorption coefficient of ε510 nm=1150 M^−1 cm^−1: The pH value of the contaminant solutions was adjusted to 7.50 via the addition of diluted H3PO4 before mixing with Fe^VI solution to achieve the desired reaction pH at 8.00±0.04. […] No test contaminants were detected in these waters, and the basic physico-chemical parameters are pH, 8.36, UV254, 0.071 and UV400, 0.006 for river water; and pH, 9.43, UV254, 0.202, and UV400, 0.017 for lake water. […]

## Potassium ferrate [Fe^VI]
[1]
  k, reactivity of Fe^VI with DMSO: about 1 M^−1 s^−1

## CC(C)NCC(O)COc1cccc2ccccc12 (stereo not drawn) [PPN, Propranolol]
[2]
  removal by Fe^VI—S2O3^2− in lake water: about 80%
[3]
  partial oxidation by Fe^VI without S2O3^2−: 32.46%

## NC(=O)N1c2ccccc2C=Cc2ccccc21 [CMZ, Carbamazepine]
[2]
  removal by Fe^VI—S2O3^2− in lake water: about 50%
[4]
  removal by Fe^VI—S2O3^2− in river water: about 80%
[3]
  partial oxidation by Fe^VI without S2O3^2−: 25.11%

## COc1cc(Cc2cnc(N)nc2N)cc(OC)c1OC [TMP, Trimethoprim]
[2]
  removal by Fe^VI—S2O3^2− in lake water: about 80%
[3]; molar ratio [S2O3^2−]:[Fe^VI] 0.125, TMP 5.0 μM, Fe(VI) 100.0 μM, pH 8.0, 30 seconds
  oxidation of TMP by Fe^VI—S2O3^2−: 100%
[3]; molar ratio [S2O3^2−]:[Fe^VI] 5.0, TMP 5.0 μM, Fe(VI) 100.0 μM, pH 8.0, 30 seconds
  elimination of TMP by Fe^VI—S2O3^2−: about 4%
[3]
  partial oxidation by Fe^VI without S2O3^2−: 22.04%
[3]; without S2O3^2−, TMP 5.0 μM, Fe(VI) 100.0 μM, pH 8.0, quenched after 30 seconds, oxygenated
  oxidation of TMP by Fe^VI: about 16%

## CCN1CCN(c2cc3c(cc2F)c(=O)c(C(=O)O)cn3C2CC2)CC1 [ENR, Enrofloxacin]
[2]
  removal by Fe^VI—S2O3^2− in lake water: about 50%
[4]
  removal by Fe^VI—S2O3^2− in river water: about 80%
[3]
  partial oxidation by Fe^VI without S2O3^2−: 41.02%

## COc1cc(NS(=O)(=O)c2ccc(N)cc2)nc(OC)n1 [SMX, Sulfadimethoxine]
[2]
  removal by Fe^VI—S2O3^2− in lake water: about 80%
[3]
  partial oxidation by Fe^VI without S2O3^2−: 47.27%

## O=C(O)Cc1ccccc1Nc1c(Cl)cccc1Cl [DCF, Diclofenac]
[2]
  removal by Fe^VI—S2O3^2− in lake water: about 80%
[3]
  partial oxidation by Fe^VI without S2O3^2−: 20.85%
